Data published in PubChem BioAssay AID1259411 (Chemical Carcinogenesis Research Information System (CCRIS), 2018).
Activity calls are given as the source filed them. The rule behind the calls is not given here.

Test system: rodent carcinogenicity bioassays, tumor incidence
Test: CCRIS carcinogenicity studies
Summary of the method: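 NCI-built, expert-reviewed records of carcinogenicity and related test outcomes (mutagenicity, tumor promotion/inhibition) compiled from published and report sources, historical span 1985-2011, not updated.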

[O-][Cl+2]([O-])O
carcinogen call (Species: MOUSE, Strain/Sex: B6C3F1/FEMALE (50, 50, 50, 50), Route: DRINKING WATER, Dose: 0, 500, 1000, 2000 MG/L FOR 105 WKS (STUDY DURATION: 105 WKS), Dose: 0, 500, 1000, 2000 MG/L FOR 105 WKS (STUDY DURATION: 105 WKS), Tumor Site: Type of Lesion: PANCREAS: ADENOMA OR CARCINOMA): equivocal | carcinogen call (Species: MOUSE, Strain/Sex: B6C3F1/MALE (50, 50, 50, 50), Route: DRINKING WATER, Dose: 0, 500, 1000, 2000 MG/L FOR 105 WKS (STUDY DURATION: 105 WKS), Dose: 0, 500, 1000, 2000 MG/L FOR 105 WKS (STUDY DURATION: 105 WKS)): inactive; negative | carcinogen call (Species: RAT, Strain/Sex: F344/N/FEMALE (50, 50, 50, 50), Route: DRINKING WATER, Dose: 0, 125, 1000, 2000 MG/L FOR 105 WK (STUDY DURATION: 105 WKS), Dose: 0, 125, 1000, 2000 MG/L FOR 105 WK (STUDY DURATION: 105 WKS)): inactive; negative; ntp reports as some evidence for thyroid but p values are not statisti | carcinogen call (Species: RAT, Strain/Sex: F344/N/MALE (50, 50, 50, 50), Route: DRINKING WATER, Dose: 0, 125, 1000, 2000 MG/L FOR 105 WK (STUDY DURATION: 105 WKS), Dose: 0, 125, 1000, 2000 MG/L FOR 105 WK (STUDY DURATION: 105 WKS), Tumor Site: Type of Lesion: THYROID: FOLLICULAR CELL ADENOMA OR CARCINOMA): active; positive (p = 0.052); ntp reports as some evidence

CNC(=O)Oc1ccccc1OC(C)C
carcinogen call (Species: MOUSE, Strain/Sex: SWISS/FEMALE, Route: DERMAL, Dose: 0, 100 MG/KG BW IN 100 µL ACETONE 3/WK FOR 52 WK (STUDY DURATION: 52 WK)): inactive; negative | carcinogen call (Species: MOUSE, Strain/Sex: SWISS/MALE, Route: DERMAL, Dose: 0, 100 MG/KG BW IN 100 µL ACETONE 3/WK FOR 52 WK (STUDY DURATION: 52 WK)): inactive; negative

CCCCCCCCCCCCN(C)N=O
carcinogen call (Species: RAT, Strain/Sex: F344/MALE, Route: GAVAGE, Dose: 60 MG/ML IN CORN OIL 2/WK FOR 30 WK, STUDY DURATION: 112 WK, Tumor Site: Type of Lesion: LUNG: ADENOCARCINOMA, FORESTOMACH: CARCINOMA, BLADDER, Tumor Site: Type of Lesion: LUNG: ADENOCARCINOMA, FORESTOMACH: CARCINOMA, BLADDER): active; positive

Clc1cnc(Oc2ccc(Oc3ncc(Cl)cc3Cl)cc2)c(Cl)c1
carcinogen call (Species: MOUSE, Strain/Sex: C57BL/MALE, Route: INTRAGASTRIC, Dose: 0, 3 MG/KG BW IN CORN OIL 1/2 WK FOR 24 WK (STUDY DURATION: 55 WK), Tumor Site: Type of Lesion: LIVER: HEPATOCELLULAR ADENOMA OR CARCINOMA): active; positive | carcinogen call (Species: MOUSE, Strain/Sex: C57BL/MALE, Route: INTRAPERITONEAL, Dose: 0, 3 MG/KG BW IN CORN OIL 1/2 WK FOR 24 WK (STUDY DURATION: 55 WK), Tumor Site: Type of Lesion: LIVER: HEPATOCELLULAR ADENOMA OR CARCINOMA): active; positive | carcinogen call (Species: MOUSE, Strain/Sex: DBA/MALE, Route: INTRAGASTRIC, Dose: 0, 3 MG/KG BW IN CORN OIL 1/2 WK FOR 24 WK (STUDY DURATION: 55 WK)): active; positive | carcinogen call (Species: MOUSE, Strain/Sex: DBA/MALE, Route: INTRAPERITONEAL, Dose: 0, 3 MG/KG BW IN CORN OIL 1/2 WK FOR 24 WK (STUDY DURATION: 55 WK), Tumor Site: Type of Lesion: LIVER: HEPATOCELLULAR ADENOMA OR CARCINOMA): active; positive | carcinogen call (Species: RAT, Strain/Sex: F344/MALE, Route: INTRAGASTRIC, Dose: 0, 30 MG/KG IN CORN OIL 1/2 WK FOR 71 WK (STUDY DURATION: 73 WK)): inactive; negative | carcinogen call (Species: RAT, Strain/Sex: F344/MALE, Route: INTRAPERITONEAL, Dose: 0, 30 MG/KG IN CORN OIL 1/2 WK FOR 71 WK (STUDY DURATION: 73 WK)): inactive; negative

CCN(Cc1cccc(S(=O)(=O)[O-])c1)c1ccc(C(=C2C=CC(=[N+](C)C)C=C2)c2ccc(N(CC)Cc3cccc(S(=O)(=O)O)c3)cc2)cc1
carcinogen call (Species: MOUSE, Strain/Sex: SWISS-WEBSTER/FEMALE, Route: DERMAL, Dose: 0, 1% IN 0.1 ML DISTILLED WATER 1/WK FOR 18 MO (STUDY DURATION: 18 MO)): inactive; negative | carcinogen call (Species: MOUSE, Strain/Sex: SWISS-WEBSTER/MALE, Route: DERMAL, Dose: 0, 1% IN 0.1 ML DISTILLED WATER 1/WK FOR 18 MO (STUDY DURATION: 18 MO)): inactive; negative | carcinogen call (Species: RAT, Route: ORAL, Tumor Site: Type of Lesion: MAMMARY GLAND, INTEGUMENTARY SYSTEM (SKIN)): active; positive | carcinogen call (Species: RAT, Route: SUBCUTANEOUS, Tumor Site: Type of Lesion: INJECTION SITE): active; positive

CC(=O)OC1CC(C)OC(C)O1 (stereo not given)
carcinogen call (Species: MOUSE, Strain/Sex: B6C3F1/FEMALE, Route: GAVAGE, Dose: 0, 250, 500 MG/KG IN CORN OIL 5 D/WK FOR 103 WK (STUDY DURATION: 105 WK), Dose: 0, 250, 500 MG/KG IN CORN OIL 5 D/WK FOR 103 WK (STUDY DURATION: 105 WK)): inactive; negative | carcinogen call (Species: MOUSE, Strain/Sex: B6C3F1/MALE, Route: GAVAGE, Dose: 0, 250, 500 MG/KG IN CORN OIL 5 D/WK FOR 103 WK (STUDY DURATION: 105 WK), Dose: 0, 250, 500 MG/KG IN CORN OIL 5 D/WK FOR 103 WK (STUDY DURATION: 105 WK), Tumor Site: Type of Lesion: FORESTOMACH: SQUAMOUS PAPILLOMA OR SQUAMOUS CELL CARCINOMA): equivocal | carcinogen call (Species: RAT, Route: ORAL, Tumor Site: Type of Lesion: LIVER): active; positive | carcinogen call (Species: RAT, Strain/Sex: F344/FEMALE, Route: GAVAGE, Dose: 0, 125, 250 MG/KG IN CORN OIL 5 D/WK FOR 103 WK (STUDY DURATION: 105 WK), Dose: 0, 125, 250 MG/KG IN CORN OIL 5 D/WK FOR 103 WK (STUDY DURATION: 105 WK)): inactive; negative | carcinogen call (Species: RAT, Strain/Sex: F344/MALE, Route: GAVAGE, Dose: 0, 62.5, 125 MG/KG IN CORN OIL 5 D/WK FOR 103 WK (STUDY DURATION: 105 WK), Dose: 0, 62.5, 125 MG/KG IN CORN OIL 5 D/WK FOR 103 WK (STUDY DURATION: 105 WK)): inactive; negative

C=CC(=O)OCCCC
carcinogen call (Species: MOUSE, Strain/Sex: C3H/MALE, Route: DERMAL, Dose: 0, 0.2 MG IN 25 µL ACETONE 3/WK FOR LIFESPAN (STUDY DURATION: LIFESPAN)): inactive; negative | carcinogen call (Species: RAT, Strain/Sex: SPRAGUE-DAWLEY/FEMALE, Route: INHALATION, Dose: 0, 15, 45, 135 PPM 6 HR/D 5 D/WK FOR 24 MO (STUDY DURATION: 130 WK), Dose: 0, 15, 45, 135 PPM 6 HR/D 5 D/WK FOR 24 MO (STUDY DURATION: 130 WK)): inactive; negative | carcinogen call (Species: RAT, Strain/Sex: SPRAGUE-DAWLEY/MALE, Route: INHALATION, Dose: 0, 15, 45, 135 PPM 6 HR/D 5 D/WK FOR 24 MO (STUDY DURATION: 130 WK), Dose: 0, 15, 45, 135 PPM 6 HR/D 5 D/WK FOR 24 MO (STUDY DURATION: 130 WK)): inactive; negative

O=C1c2ccccc2-c2ccc([N+](=O)[O-])c3cccc1c23
carcinogen call (Species: RAT, Strain/Sex: F344/FEMALE, Route: INTRATRACHEAL, Dose: 0, 1.5 MG TOTAL, 2.5 MG TOTAL OVER 18 MO (STUDY DURATION: 18 MO), Dose: 0, 1.5 MG TOTAL, 2.5 MG TOTAL OVER 18 MO (STUDY DURATION: 18 MO), Tumor Site: Type of Lesion: LUNG: CARCINOMA): active; positive (at higher dosage and longer duration)

Cc1ccc(N=Nc2c(O)ccc3ccccc23)c([N+](=O)[O-])c1
carcinogen call (Species: MOUSE, Strain/Sex: B6C3F1/FEMALE, Route: ORAL, Dose: 0, 12500, 25000, 50000 PPM IN FEED FOR 2 YR (STUDY DURATION: 2 YR), Dose: 0, 12500, 25000, 50000 PPM IN FEED FOR 2 YR (STUDY DURATION: 2 YR)): inactive; negative | carcinogen call (Species: MOUSE, Strain/Sex: B6C3F1/MALE, Route: ORAL, Dose: 0, 12500, 25000, 50000 PPM IN FEED FOR 2 YR (STUDY DURATION: 2 YR), Dose: 0, 12500, 25000, 50000 PPM IN FEED FOR 2 YR (STUDY DURATION: 2 YR), Tumor Site: Type of Lesion: KIDNEY (CORTEX): ADENOMA, THYROID GLAND (FOLLICULAR CELL): ADENOMA): active; positive | carcinogen call (Species: RAT, Strain/Sex: F344/FEMALE, Route: ORAL, Dose: 0, 6000, 12500, 25000 PPM IN FEED FOR 2 YR (STUDY DURATION: 2 YR), Dose: 0, 6000, 12500, 25000 PPM IN FEED FOR 2 YR (STUDY DURATION: 2 YR), Tumor Site: Type of Lesion: LIVER: HEPATOCELLULAR ADENOMA): active; positive | carcinogen call (Species: RAT, Strain/Sex: F344/MALE, Route: ORAL, Dose: 0, 6000, 12500, 25000 PPM IN FEED FOR 2 YR (STUDY DURATION: 2 YR), Dose: 0, 6000, 12500, 25000 PPM IN FEED FOR 2 YR (STUDY DURATION: 2 YR), Tumor Site: Type of Lesion: ADRENAL MEDULLA: PHEOCHROMOCYTOMA (BENIGN OR MALIGNANT)): active; positive
